Assay results from US20120095022A1, “DERIVATIVES OF 10-AMINO-1,2,3,4-TETRAHYDROPYRIDO[2,1-A]ISOINDOL-6(10BH)-ONES, METHOD FOR PREPARATION THEREOF AND THERAPEUTIC USES THEREOF” (UNIVERSITE D'ORLEANS, priority 2009, published 2012).

Tests used:
DYRK1A = DYRK1A (Homo sapiens, UniProt Q13627); assay: DYRK1A kinase inhibition (Woodtide substrate)
Caco (colon) = assay: Cytotoxicity on human cells, automated nuclei counting: Caco; format: cell-based; details: exposed 24 h to 48 h, 0.1 to 25 μM
Outline: (§1)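 Read-out: automated imaging analysis. Cells in DMEM or RPMI + 10% FCS + pen-strep, 37° C, 5% CO2; 4.10^3 cells/well, 24 h settling before dosing at increasing concentrations. Vehicle controls: DMSO, max 1%.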

NCI (lung) = assay: Cytotoxicity on human cells, automated nuclei counting: NCI; format: cell-based; details: exposed 24 h to 48 h, 0.1 to 25 μM
Outline: as §1

GSK-3αβ = assay: GSK-3 kinase inhibition (GS-1 substrate); details: read-out: IC50 μM Kinases GSK3, buffer A, 30° C., 15 μM ATP
PC3 (prostate) = assay: Cytotoxicity on human cells, automated nuclei counting: PC3; format: cell-based; details: PC-3, exposed 24 h to 48 h, 0.1 to 25 μM
Outline: as §1

MDA-MB 231 (breast) = assay: Cytotoxicity on human cells, automated nuclei counting: MDA-MB 231; format: cell-based; details: MDA-MB 231 cells, exposed 24 h to 48 h, 0.1 to 25 μM
Outline: as §1

HCT 116 (colon) = assay: Cytotoxicity on human cells, automated nuclei counting: HCT 116; format: cell-based; details: HCT 116 cells, exposed 24 h to 48 h, 0.1 to 25 μM
Outline: as §1

fibroblast = assay: Cytotoxicity on human cells, automated nuclei counting: fibroblast; format: cell-based; details: exposed 24 h to 48 h, 0.1 to 25 μM
Outline: as §1

Huh7 (liver) = assay: Cytotoxicity on human cells, automated nuclei counting: Huh7; format: cell-based; details: Huh-7, exposed 24 h to 48 h, 0.1 to 25 μM
Outline: as §1

CDK5/D25 = biological target: T1, CDK5/D25 (Homo sapiens, UniProt Q00535); assay: CDK5 kinase inhibition (33P-ATP, histone H1); format: biochemical; details: buffer C, 30° C., 15 μM ATP, read-out: IC50 μM Kinases CDK5
T1 construct: made in house
Outline: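 Kinase reactions ran in buffer C (25 mM Mops pH 7.2, 15 mM MgCl2, 1 mM DTT, phosphatase inhibitors) with [33P]-ATP for 30 min at 30° C. Phosphorylated substrate was captured on P81 phosphocellulose filters, washed in phosphoric acid and counted by scintillation.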

CDK1/cyclin B = CDK1/cyclin B kinase inhibition (33P-ATP, histone H1); format: biochemical, sea star; details: buffer C, 30° C., 15 μM ATP, read-out: IC50 μM Kinases CDK1
Method: The protein kinase inhibition activities of the compounds of the invention are tested according to the following general procedure:
Buffer C: 60 mM β-glycerophosphate, 15 mM p-nitrophenyl-phosphate, 25 mM Mops (pH 7.2), 5 mM EGTA, 15 mM mgCl2, 1 mM DTT, 1 mM sodium vanadate and 1 mM phenylphosphate.
The controls were made with suitable dilutions of DMSO.
ATP (3.000 Ci/mmol.; 10 mCi/mL) in a final volume of 30 μL. After 30 mins of incubation at 30° C., 25 μL of supernatant aliquots were deposited on phosphocellulose Whatman P81 paper pieces of 2.5×3 cm, and after 20 seconds, the filters were washed five times (for at least 5 minutes each time) in a solution of 10 mL of phosphoric acid/1 litre of water. The wet filters were counted in the presence of 1 mL of scintillation fluid ACS (Amersham).

T1 sequence (Q00535 whole entry): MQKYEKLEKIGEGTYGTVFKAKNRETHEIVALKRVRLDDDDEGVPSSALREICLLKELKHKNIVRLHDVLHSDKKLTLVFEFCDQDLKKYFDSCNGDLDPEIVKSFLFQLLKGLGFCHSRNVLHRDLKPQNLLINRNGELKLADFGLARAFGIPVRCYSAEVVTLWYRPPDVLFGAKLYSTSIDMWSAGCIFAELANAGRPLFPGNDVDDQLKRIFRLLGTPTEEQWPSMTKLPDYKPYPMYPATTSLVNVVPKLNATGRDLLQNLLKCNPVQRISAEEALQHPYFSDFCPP
T1 sequence (Q15078 99-307 partner limits assumed): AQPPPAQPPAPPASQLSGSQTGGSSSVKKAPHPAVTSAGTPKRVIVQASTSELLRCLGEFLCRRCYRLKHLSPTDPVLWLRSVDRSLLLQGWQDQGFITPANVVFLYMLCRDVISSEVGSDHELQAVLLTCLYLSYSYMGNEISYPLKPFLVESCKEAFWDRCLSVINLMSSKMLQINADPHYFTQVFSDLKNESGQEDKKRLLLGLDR

SMILES: O=C1c2cccc(NC(=S)Nc3ccccn3)c2C2CC3(CCN12)SCCS3 (centres unmarked) [Compound 70, 1-(6′-Oxo-3′,4′,6′,10b′-tetrahydro-1′H-spiro[[1,3]dithiolane-2,2′-pyrido[2,1-a]isoindole]-10′-yl)-3-(pyridin-2-yl)thiourea]
- IC50 (DYRK1A): 22 µM
- IC50 (Caco (colon)): 2 µM
- IC50 (NCI (lung)): 10 µM
- IC50 (GSK-3αβ): 2.5 µM
- IC50 (PC3 (prostate)): > 25 µM
- IC50 (MDA-MB 231 (breast)): 3 µM
- IC50 (HCT 116 (colon)): 2 µM
- IC50 (fibroblast): 20 µM
- IC50 (Huh7 (liver)): 15 µM
- IC50 (CDK5/D25): 19 µM
- melting point: 142 °C

SMILES: O=C1c2cccc(NC(=S)Nc3cc[nH]n3)c2C2CC3(CCN12)SCCS3 (centres unmarked) [Compound 71, 1-(6′-Oxo-3′,4′,6′,10b′-tetrahydro-1′H-spiro[[1,3]dithiolane-2,2′-pyrido[2,1-a]isoindole]-10′-yl)-3-(1H-pyrazol-3-yl)thiourea]
- IC50 (DYRK1A): > 10 µM
- IC50 (Caco (colon)): 15 µM
- IC50 (NCI (lung)): 15 µM
- IC50 (GSK-3αβ): > 10 µM
- IC50 (PC3 (prostate)): > 25 µM
- IC50 (MDA-MB 231 (breast)): 15 µM
- IC50 (HCT 116 (colon)): 7 µM
- IC50 (fibroblast): 25 µM
- IC50 (Huh7 (liver)): 20 µM
- IC50 (CDK5/D25): > 10 µM
- melting point: 185 °C

SMILES: O=C1c2cccc(NC(=S)Nc3ncccc3Br)c2C2CC3(CCN12)SCCS3 (centres unmarked) [Compound 74, 1-(3-Bromopyridin-2-yl)-3-(6′-oxo-3′,4′,6′,10b′-tetrahydro-1′H-spiro[[1,3]dithiolane-2,2′-pyrido[2,1-a]isoindole]-10′-yl)thiourea]
- IC50 (DYRK1A): > 10 µM
- IC50 (Caco (colon)): 20 µM
- IC50 (NCI (lung)): 12 µM
- IC50 (GSK-3αβ): 3 µM
- IC50 (PC3 (prostate)): 15 µM
- IC50 (MDA-MB 231 (breast)): > 25 µM
- IC50 (HCT 116 (colon)): 25 µM
- IC50 (fibroblast): 25 µM
- IC50 (Huh7 (liver)): 10 µM
- IC50 (CDK5/D25): > 10 µM
- melting point: 215 °C

SMILES: O=C(Nc1cccc2c1C1CCCCN1C2=O)Nc1ncccc1Br (centres unmarked) [Compound 75, 1-(3-Bromopyridin-2-yl)-3-(6-oxo-1,2,3,4,6,10b-hexahydropyrido[2,1-a]isoindol-10-yl)urea]
- IC50 (DYRK1A): 3 µM
- IC50 (Caco (colon)): 5 µM
- IC50 (NCI (lung)): 2 µM
- IC50 (GSK-3αβ): 0.17 µM
- IC50 (PC3 (prostate)): 7 µM
- IC50 (MDA-MB 231 (breast)): 1.5 µM
- IC50 (HCT 116 (colon)): 0.4 µM
- IC50 (fibroblast): 0.6 µM
- IC50 (Huh7 (liver)): 0.25 µM
- IC50 (CDK5/D25): 0.48 µM
- melting point: 220 °C

SMILES: COc1ccc(NC(=O)Nc2cccc3c2C2CCCCN2C3=O)cn1 (centres unmarked) [Compound 96, N-(6-Methoxypyridin-3-yl)-M-(6-oxo-1,2,3,4,6,10b-hexahydropyrido[2,1-a]isoindol-10-yl)urea]
- IC50 (Caco (colon)): 0.8 µM
- IC50 (NCI (lung)): 0.6 µM
- IC50 (GSK-3αβ): 0.23 µM
- IC50 (PC3 (prostate)): 0.6 µM
- IC50 (CDK1/cyclin B): 25 µM
- IC50 (MDA-MB 231 (breast)): 0.2 µM
- IC50 (HCT 116 (colon)): 0.2 µM
- IC50 (fibroblast): 1.5 µM
- IC50 (Huh7 (liver)): 0.5 µM
- IC50 (CDK5/D25): 1.6 µM
- melting point: 175 °C

SMILES: O=C(Nc1cnccn1)Nc1cccc2c1C1C[C@@H](O)CCN1C2=O (stereo partly drawn) [Compound 105, 1-((2S)-2-Hydroxy-6-oxo-1,2,3,4,6,10b-hexahydropyrido[2,1-a]isoindol-10-yl)-3-(pyrazin-2-yl)urea]
- IC50 (DYRK1A): > 10 µM
- IC50 (Caco (colon)): > 25 µM
- IC50 (NCI (lung)): 8 µM
- IC50 (GSK-3αβ): 0.032 µM
- IC50 (PC3 (prostate)): 20 µM
- IC50 (MDA-MB 231 (breast)): 25 µM
- IC50 (HCT 116 (colon)): 8 µM
- IC50 (fibroblast): 12 µM
- IC50 (Huh7 (liver)): 4 µM
- IC50 (CDK5/D25): 0.084 µM
- melting point: 250 °C

SMILES: COc1cc(NC(=O)Nc2cccc3c2C2CC(O)CCN2C3=O)nc2ccccc12 (centres unmarked) [Compound 109, 1-(2-Hydroxy-6-oxo-1,2,3,4,6,10b-hexahydropyrido[2,1-a]isoindol-10-yl)-3-(4-methoxyquinolin-2-yl)urea]
- IC50 (DYRK1A): > 10 µM
- IC50 (Caco (colon)): 15 µM
- IC50 (NCI (lung)): 1 µM
- IC50 (GSK-3αβ): 0.035 µM
- IC50 (PC3 (prostate)): 5 µM
- IC50 (MDA-MB 231 (breast)): 6 µM
- IC50 (HCT 116 (colon)): 1 µM
- IC50 (fibroblast): 5 µM
- IC50 (Huh7 (liver)): 1 µM
- IC50 (CDK5/D25): 4.9 µM
- melting point: > 260 °C
